These results are taken from publication PMC7558535, “In Vitro Metabolism of DWP16001, a Novel Sodium-Glucose Cotransporter 2 Inhibitor, in Human and Animal Hepatocytes” (Pharmaceutics, 2020).

In general, CLint scaled refers to the capacity of the preparation to metabolise the compound, expressed as a volume cleared per time. One may read the half-life as the time needed for the level to fall by half in the phase considered.

Common to all, as to type: in vitro ADME
For one data set, the system named is rat hepatocytes. Nature of the data set: Metabolic stability in rat hepatocytes. As to the method: (§1) To evaluate the metabolic stability of DWP16001 in human, dog, monkey, mouse, and rat hepatocytes, pooled cryopreserved hepatocytes were carefully thawed in recovery medium and resuspended in incubation medium (Krebs–Henseleit buffer for mouse, rat, and human; William’s E media for dog and monkey) to 0.5 × 10^6 cells/mL for mouse, 0.67 × 10^6 cells/mL for rat, and 1.0 × 10^6 cells/mL for dog, monkey, and human in accordance with the manufacturer’s protocols. Then, 60-μL aliquots of these hepatocyte suspensions and an equal volume of 2 μM DWP16001 in incubation medium were mixed in 96-well plates and incubated in triplicate for 0, 30, 60, 90, 120, 180, or 240 min in a CO2 incubator at 37 °C. Reactions were stopped by addition of 120 µL of ice-cold acetonitrile to each well and the cell suspension was sonicated for 5 min at 4 °C, followed by centrifugation at 15,000× g for 10 min at 4 °C after 5 min of sonication. 80-µL aliquots of the supernatants were then vortex-mixed with 20 μL of ice-cold ketoconazole (an internal standard) in acetonitrile and analyzed by LC–tandem mass spectrometry (LC-MS/MS). The peak area ratios of DWP16001 versus internal standard at each sampling point were used for the subsequent calculation. Elimination parameters, including half-life (t1/2), intrinsic clearance (Clint), and hepatic clearance (Clhep) of DWP16001 in mouse, rat, dog, monkey, and human were calculated by the following equations [19]. (1) t1/2min=ln2/−k elimination slope (2) ClintmL/min/kg=ln2/t1/2×mL incubation/hepatocytes 10^6 cells×B×10^6 cells/g liver×A g liver/kg BW (3) ClhepmL/min/kg=Qh×Clint/Qh+Clint (4) Hepatic extraction ratio = Clhep/Qh
(§2) Here, A has values of 87.5, 40, 32, 32, and 25.7; B has values of 135, 117, 215, 120, and 139; Qh (representing hepatic blood flow) has values of 90, 55.2, 30.9, 43.4, and 20.7 mL/min/kg, for mouse, rat, dog, monkey, and human, respectively. Hepatic extraction ratio values of ≤ 0.25, 0.25–0.75, and ≥ 0.75 were regarded as low, moderate, and high, respectively.

The nature of data set [1]: Metabolic stability in rat hepatocytes. The settings on record: pooled cryopreserved hepatocytes. As to the method: as §1, §2
Data set [2] in a line: Metabolic stability in monkey hepatocytes. Conditions: pooled cryopreserved hepatocytes, monkey hepatocytes. As to the method: as §1, §2
The test system of another data set is monkey hepatocytes. The data set is described as follows: Metabolic stability in monkey hepatocytes. As for the experimental part:
as §1, §2

Another data set deals with human liver microsomes. The data set is described as follows: Enzyme kinetics of metabolite formation in human liver microsomes. As to the method: To calculate the enzyme kinetic parameters for the M1 and M2 formation from DWP16001, DWP16001 (final concentrations, 1–200 μM) was incubated with NADPH-generating system, pooled human liver microsomes (0.25 mg/mL), or human cDNA-expressed CYP3A4 or CYP2C19 supersomes (10 pmol) at 37 °C for 30 min in triplicate. Reactions were stopped by addition of 400 μL of ice-cold ketoconazole (200 ng/mL) in acetonitrile. Following vortex-mixing and centrifugation (15,000× g, 8 min, 4 °C), 75 μL aliquots of the supernatant were diluted with 75 µL of 30% acetonitrile; 5 μL aliquots were injected into an LC−MS/MS system.
Apparent kinetic parameters (Km, Vmax and n) for the formation of M1, M2, and M3 from DWP16001 by human liver microsomes, CYP3A4, or CYP2C19 were calculated as follows: the unweighted formation rates of M1, M2, and M3 over a range of DWP16001 concentrations were fitted to the Hill equation model [V = Vmax × S^n/(Km^n + S^n)] or the single enzyme model [V = Vmax × S/(Km + S)] using Enzyme Kinetics software (version 1.1 SPSS Inc., Chicago, IL, USA). In the above equations, V means the reaction velocity of the formation of M1, M2, and M3 at given concentration [S] of DWP16001, Vmax means the maximum reaction velocity, n means the Hill constant, and Km means the DWP16001 concentration at which the reaction velocity is 50% of Vmax.

Data set [3] is described as follows: Metabolic stability in human hepatocytes. The settings on record: pooled cryopreserved hepatocytes. As to the method: as §1, §2
Another data set concerns human hepatocytes. Nature of the data set: Metabolic stability in human hepatocytes. As to the method: as §1, §2
The target in another data set is T1, UGT1A9 (Homo sapiens, UniProt O60656).
T1 construct: purchased Corning Life Sciences
T1 sequence (O60656 26-530): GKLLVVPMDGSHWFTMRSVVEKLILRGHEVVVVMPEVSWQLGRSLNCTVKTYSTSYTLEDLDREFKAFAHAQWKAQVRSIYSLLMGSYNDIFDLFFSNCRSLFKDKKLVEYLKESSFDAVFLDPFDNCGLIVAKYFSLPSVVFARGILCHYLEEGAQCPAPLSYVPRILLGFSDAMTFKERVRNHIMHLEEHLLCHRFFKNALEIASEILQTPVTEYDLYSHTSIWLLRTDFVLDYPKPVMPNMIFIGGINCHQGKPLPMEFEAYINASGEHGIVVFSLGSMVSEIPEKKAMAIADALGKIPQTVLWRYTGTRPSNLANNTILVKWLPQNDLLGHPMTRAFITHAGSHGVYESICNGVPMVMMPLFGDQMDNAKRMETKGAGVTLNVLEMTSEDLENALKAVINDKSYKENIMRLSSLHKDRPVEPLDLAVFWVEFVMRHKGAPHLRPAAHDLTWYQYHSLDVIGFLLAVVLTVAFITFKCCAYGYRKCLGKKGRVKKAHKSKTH
The data set is described as follows: UGT screening, cDNA-expressed UGT1A9. As to the method: To screen for UGT enzymes responsible for glucuronidation of DWP16001, 100 μL of reaction mixtures containing 13 human cDNA-expressed UGT enzymes (1A1, 1A3, 1A4, 1A6, 1A7, 1A8, 1A9, 1A10, 2B4, 2B7, 2B10, 2B15, and 2B17) at 0.1 mg protein/mL, 5 mM UDPGA, 0.025 mg/mL alamethicin, and 25 μM DWP16001 or M1 in 50 mM Tris buffer (pH 7.4) were incubated at 37 °C for 30 min in triplicate. Reactions were stopped by adding 100 μL of ketoconazole (internal standard, 200 ng/mL) in acetonitrile, followed by vortex-mixing and centrifugation (15,000× g, 8 min, 4 °C). The supernatant (75 μL) was diluted with equal volume of 30% acetonitrile and aliquots (5 μL) were injected into an LC-MS/MS system.

With `OC[C@H]1O[C@@H](c2cc(Cc3ccc(C4CC4)cc3)c(Cl)c3c2CCO3)[C@H](O)[C@@H](O)[C@@H]1O` [DWP16001, (2S,3R,4R,5S,6R)-2-(7-chloro-6-(4-cyclopropylbenzyl)-2,3-dihydrobenzofuran-4-yl)-6-(hydroxymethyl)tetrahydro-2H-pyran-3,4,5-triol], the values for the Hepatic extraction ratio in the data set on rat hepatocytes, in the data set with monkey hepatocytes (monkey hepatocytes) and in the data set on human hepatocytes were 0.15, 0.43 and 0.22, respectively. In addition, the results for the “Hepatic extraction ratio class” value in the data set with rat hepatocytes, in the data set on monkey hepatocytes (monkey) and with human hepatocytes were “low (Hepatic extraction ratio values of ≤ 0.25)”, “moderate (0.25–0.75)” and “low (Hepatic extraction ratio values of ≤ 0.25)”, respectively. In addition, the Clhep is reported as 8.3 mL/min/kg with rat hepatocytes (well-stirred model); 18.5 mL/min/kg with monkey hepatocytes (monkey hepatocytes, well-stirred model); 4.5 mL/min/kg with human hepatocytes (well-stirred model). Also, the CLint scaled at 1 μM in data set [1] came to 9.8 mL/min/kg; in data set [2] it was 32.3 mL/min/kg; in data set [3], 5.7 mL/min/kg. For the same compound, the half-life at 1 μM in data set [1] (37 °C, 0-240 min) is 16.5 h; in data set [2] (37 °C, 0-240 min), 2.75 h; in data set [3] (37 °C, 0-240 min), 14.4 h. The “M1 Formation Vmax” value with human liver microsomes (HLM) was 980.3 pmol/min/mg protein. Also, the “M1 Formation n (hill coefficient)” value in the data set with human liver microsomes (HLM) was 0.9176. Moreover, in the data set with human liver microsomes (HLM), the “M2 Formation Vmax” value is reported as 82.8 pmol/min/mg protein. The “M2 Formation n (hill coefficient)” value in the data set with human liver microsomes (HLM) worked out at 0.9773. Besides, in the data set on human liver microsomes (HLM, kinetic model fitted), the “M1 Formation Mode” value was “Hill”. Besides, the “M2 Formation Mode” value with human liver microsomes (HLM, kinetic model fitted) is recorded as “Hill”. Also, in the data set with human liver microsomes (human liver microsomes), the “M3 formation from DWP16001 in enzyme kinetic analysis” value was “not detected”. On UGT1A9, the “Substrate of UGT1A9” value is listed as “substrate”.
